The values below come from patent US8519188B2, “Compounds which can be used for the treatment of cancers” (Marc-Henry Pitty, priority 2008, dated 2013).

Experiment [1] deals with MCF-7/adr adriamycin-resistant breast cancer cell line. The experiment can be described thus: Cell proliferation (CellTiter 96 AQueous MTS/PMS), MCF-7/adr. In kind it is cell-based. The conditions noted are these: Homo sapiens, NCI/ADR-RES; MCF-7/adr; 72 hours of incubation; concentration that induces the death of 50% of the cells; read-out: CI50 for various cell lines (nM) MCF-7/adr. The method, then: (§1) The effects of the compounds of the invention on the proliferation of cancer cells were studied on various human cancer cell lines of various tissue origins (MCF-7: breast cancer, MCF-7/adr adriamycin-resistant breast cancer, ARH-77: myeloma, ARH-77/Dox: doxorubicin (other name for adriamycin)-resistant myeloma, HL-60: acute promyelocytic leukaemia, HL-60/R10: doxorubicin-resistant acute promyelocytic leukaemia). The cancer cells used for this study were incubated at 37° C. in the presence of one of the compounds of the invention added to the culture medium at various concentrations.
(§2) The cancer cell lines originate from the ATCC (American Type Culture Collection) in the case of MCF-7, ARH-77 and HL-60, from Pharmacell (Paris, France) for HL-60/R10, from Oncodesign (Dijon, France) for ARH-77/Dox and from the Pitié Salpetrière Hospital for MCF-7/adr. They were cultivated in a RPMI 1640 medium containing 2 mM L-glutamine and supplemented with 10% foetal calf serum. All the cell lines were maintained in culture at 37° C. in a moist atmosphere containing 5% CO2. Cell proliferation was evaluated using the “CellTiter 96® AQueous” reagent (Promega, Wis., USA) while adhering to the manufacturer's instructions. The cells were seeded in 96-well culture plates in a proportion of from 5,000 to 10,000 cells per well in 200 μl of culture medium. After 24 hours of preincubation at 37° C., the compounds of the invention dissolved in dimethyl sulphoxide (DMSO) were added individually to each of the wells in a proportion of 2 μl per well. After 72 hours of incubation at 37° C. in a moist atmosphere containing 5% CO2, 40 μL of a MTS/PMS ([3-(4,5-dimethylthiazol-2-yl)-5-(3-carboxymethoxyphenyl)-2-(4-sulphophenyl)-2H-tetrazolium phenazine methosulphate) solution were added to each well.

Experiment [2] relates to MCF-7 breast cancer cell line. The experiment can be described thus: Cell proliferation (CellTiter 96 AQueous MTS/PMS), MCF-7. The class given is cell-based. The conditions noted are these: Homo sapiens, MCF7; MCF-7; 72 hours of incubation; concentration that induces the death of 50% of the cells; read-out: CI50 for various cell lines (nM) MCF-7. As to the method: as §1, §2

On to `C#CC(=O)N(C(C(=O)NCc1ccccc1)c1cccs1)[C@@H](C)c1ccccc1` (stereo partly drawn) [Compound 8, Propynoic Acid (benzylcarbamoylthiophen-2-yl-methyl)-((S)-1-phenylethyl)amide], for which the IC50 in experiment [1] was determined as 30 nM. Same read-out and setting: for `C#CC(=O)N(C(C(=O)NCc1ccccc1)c1cccs1)[C@H](C)c1ccccc1` (stereo partly drawn) [Compound 9, Propynoic Acid (benzylcarbamoylthiophen-2-yl-methyl)-((R)-1-phenylethyl)amide] the value was 30 nM; for `C#CC(=O)N(CC(C)C)C(C(=O)NC1CCCCC1)c1cccs1` (stereo not drawn) [Compound 12, Propynoic Acid (cyclohexylcarbamoylthiophen-2-yl-methyl)isobutylamide], 30 nM; for `C#CC(=O)N(CC(C)C)C(C(=O)NCc1ccccc1)c1cccs1` (stereo not drawn) [Compound 16, Propynoic Acid (benzylcarbamoylthiophen-2-yl-methyl)isobutylamide], 1 nM. On the same count and under the same terms, for `C#CC(=O)N(CC1CC1)C(C(=O)NCc1ccccc1)c1cccs1` (stereo not drawn) [Compound 18, Propynoic Acid (benzylcarbamoylthiophen-2-yl-methyl)cyclopropylmethylamide] the value was 30 nM.

Turning to `C#CC(=O)N(c1cccc(C(F)(F)F)c1)C(C(=O)NC1CCCCC1)c1ccc(C)s1` (stereo not drawn) [Compound 19, Propynoic Acid [cyclohexylcarbamoyl-(5-methylthiophen-2-yl)-methyl]-(3-trifluoromethylphenyl)amide], the IC50 in experiment [1] is 1.4 nM; in experiment [2] it was 340 nM. Consider `C#CC(=O)N(c1cccc([N+](=O)[O-])c1)C(C(=O)NC1CCCCC1)c1cccs1` (stereo not drawn) [Compound 27, Propynoic Acid (cyclohexylcarbamoylthiophen-2-yl-methyl)-(3-nitrophenyl)amide], for which the results for the IC50 in experiment [1] and in experiment [2] were 0.8 nM and 110 nM, respectively. The corresponding values for `C#CC(=O)N(c1ccc(-c2csnn2)cc1)C(C(=O)NC1CCCCC1)c1cccs1` (stereo not drawn) [Compound 28, Propynoic Acid (cyclohexylcarbamoylthiophen-2-yl-methyl)-(4-[1,2,3]thiadiazol-4-yl-phenyl)amide] are 2.2 nM and 70 nM. The corresponding values for `C#CC(=O)N(c1ccc(C(O)(C(F)(F)F)C(F)(F)F)cc1)C(C(=O)NC1CCCCC1)c1cccs1` (stereo not drawn) [Compound 29, Propynoic Acid (cyclohexylcarbamoylthiophen-2-yl-methyl)-[4-(2,2,2-trifluoro-1-hydroxy-1-trifluoromethylethyl)phenyl]amide] are 18 nM and 877 nM.

Take `C#CC(=O)N(c1ccc(N(CC)CC)cc1)C(C(=O)NC1CCCCC1)c1cccs1` (stereo not drawn) [Compound 32, Propynoic Acid (cyclohexylcarbamoylthiophen-2-yl-methyl)-(4-diethylaminophenyl)amide]: the IC50 amounted to 2.9 nM in experiment [1] and 1260 nM in experiment [2].

On to `C#CC(=O)N(c1ccccc1Cl)C(C(=O)NC1CCCCC1)c1cccs1` (stereo not drawn) [Compound 33, Propynoic Acid (2-chlorophenyl)(cyclohexylcarbamoylthiophen-2-yl-methyl)amide], for which the values for the IC50 in experiment [1] and in experiment [2] were 2.7 nM and 736 nM, respectively. In the case of `C#CC(=O)N(c1cccc(-c2ccnc(C)n2)c1)C(C(=O)NC1CCCCC1)c1cccs1` (stereo not drawn) [Compound 38, Propynoic Acid (cyclohexylcarbamoylthiophen-2-yl-methyl)-[3-(2-methylpyrimidin-4-yl)-phenyl]amide], the values for the IC50 in experiment [1] and in experiment [2] were 1.9 nM and 272 nM, respectively. Consider `C#CC(=O)N(c1ccc(Cl)cc1)C(C(=O)NC1CCCCC1)c1cccs1` (stereo not drawn) [Compound 41, Propynoic Acid (4-chlorophenyl)(cyclohexylcarbamoylthiophen-2-yl-methyl)amide], for which the IC50 in experiment [1] was 3.2 nM; in experiment [2], 158 nM. Turning to `C#CC(=O)N(c1ccc(N2CCOCC2)cc1)C(C(=O)NC1CCCCC1)c1cccs1` (stereo not drawn) [Compound 48, Propynoic Acid (cyclohexylcarbamoylthiophen-2-yl-methyl)-(4-morpholin-4-yl-phenyl)amide], the IC50 in experiment [1] was determined as 1 nM. For the compound `C#CC(=O)N(c1ccc2[nH]ncc2c1)C(C(=O)NC1CCCCC1)c1cccs1` (stereo not drawn) [Compound 49, Propynoic Acid (cyclohexylcarbamoylthiophen-2-yl-methyl)-(1H-indazol-5-yl)-amide], the IC50 was found to be 1 nM in experiment [1] and 220 nM in experiment [2].

Regarding `C#CC(=O)N(c1ccc(F)cc1F)C(C(=O)NC1CCCCC1)c1cccs1` (stereo not drawn) [Compound 50, Propynoic Acid (cyclohexylcarbamoylthiophen-2-yl-methyl)-(2,4-difluorophenyl)amide], the IC50 in experiment [1] worked out at 2 nM; in experiment [2], 282 nM. With `C#CC(=O)N(c1ccc(C(C)(C)C)cc1)C(C(=O)NC1CCCCC1)c1cccs1` (stereo not drawn) [Compound 52, Propynoic Acid (4-tert-butylphenyl)(cyclohexylcarbamoylthiophen-2-yl-methyl)amide], the IC50 turned out to be 3.5 nM in experiment [1] and 708 nM in experiment [2]. The corresponding values for `C#CC(=O)N(c1ccc(C#N)cc1)C(C(=O)NC1CCCCC1)c1cccs1` (stereo not drawn) [Compound 53, Propynoic Acid (4-cyanophenyl)(cyclohexylcarbamoylthiophen-2-yl-methyl)amide] are 2.8 nM and 372 nM. In the case of `C#CC(=O)N(c1ccccc1C#N)C(C(=O)NC1CCCCC1)c1cccs1` (stereo not drawn) [Compound 54, Propynoic Acid (2-cyanophenyl)(cyclohexylcarbamoylthiophen-2-yl-methyl)amide], the IC50 amounted to 2.9 nM in experiment [1] and 224 nM in experiment [2]. On to `C#CC(=O)N(c1ccc(Oc2ccccc2)cc1)C(C(=O)NC1CCCCC1)c1cccs1` (stereo not drawn) [Compound 55, Propynoic Acid (cyclohexylcarbamoylthiophen-2-yl-methyl)-(4-phenoxyphenyl)amide], for which the IC50 in experiment [1] was found to be 2.4 nM; in experiment [2] it was 694 nM. `C#CC(=O)N(c1cccc(C#C)c1)C(C(=O)NC1CCCCC1)c1cccs1` (stereo not drawn) [Compound 56, Propynoic Acid (cyclohexylcarbamoylthiophen-2-yl-methyl)-(3-ethynylphenyl)amide]: the IC50 was determined as 1.4 nM in experiment [1] and 640 nM in experiment [2].

`C#CC(=O)N(c1ccc(C(C)C)cc1)C(C(=O)NC1CCCCC1)c1cccs1` (stereo not drawn) [Compound 57, Propynoic Acid (cyclohexylcarbamoylthiophen-2-yl-methyl)-(4-isopropylphenyl)amide]: the IC50 in experiment [1] is 8.1 nM; in experiment [2], 599 nM. For the compound `C#CC(=O)N(c1cccc(C(F)(F)F)c1)C(C(=O)NC1CCCCC1)c1ccccc1` (stereo not drawn) [Compound 66, Propynoic Acid (cyclohexylcarbamoyl phenylmethyl)-(3-trifluoromethylphenyl)amide], in experiment [1], the IC50 was determined as 1 nM.

As for `C#CC(=O)N(c1cccc(C(F)(F)F)c1)C(C(=O)NC1CCCCC1)c1ccc(N(C)C)cc1` (stereo not drawn) [Compound 76, Propynoic Acid [cyclohexylcarbamoyl-(4-dimethylaminophenyl)methyl]-(3-trifluoromethylphenyl)amide], the IC50 in experiment [1] stood at 1.5 nM. As for `C#CC(=O)N(c1cccc2ccccc12)C(C(=O)NC1CCCCC1)c1ccccc1` (stereo not drawn) [Compound 176], in experiment [1], the IC50 is 1.9 nM. As to `C#CC(=O)N(Cc1ccc2c(c1)OCO2)C(C(=O)NCc1ccccc1)c1ccccc1F` (stereo not drawn) [Compound 181], in experiment [1], the IC50 was 0.2 nM.
